Values quoted from earlier work as cited in patent US20090215137A1, “METHODS FOR THE ECONOMICAL PRODUCTION OF BIOFUEL PRECURSOR THAT IS ALSO A BIOFUEL FROM BIOMASS” (GEVO, INC., priority 2007, published 2009).
Values after ≈ are worked out from the molar mass of the structure shown. Read-outs that look alike come from different tables or passages of the source.

Assays:
[1] = octanol:water
[2] = system: Klyveromyces marxianus; settings: in binary combination

Question: Which “log P” value [1] does the source give for `CCC(C)O` (stereo not drawn) [Biocatalyst 2-butanol, 2-butanol] here?
Answer: The value was 0.6.

Question: With `CCCCCCCCO` [Biocatalyst 1-octanol, 1-octanol] as the compound, how does the “log P” value [1] read?
Answer: The value was 3.

Question: And the Solubility in water (20° C., unless noted)?
Answer: Its Solubility in water (20° C., unless noted) is 0.3 g/L (≈ 2300 µM).

Question: And the solubility limit (two-phase system (Chen, Q. 1995))?
Answer: Its solubility limit is less than 1.1 g/L.

Question: For `COc1cc(C=O)ccc1O` [Vanillin, vanillin], which “reduction in both cell growth and fermentation” value [2] is on record?
Answer: Its value is 90%.

Question: With `CC(C)O` [Biocatalyst 2-propanol, 2-propanol] as the compound, how does the “Solubility in water (20° C., unless noted)” value (in words) read?
Answer: The value was “miscible”.
